Experimental data reported in US20230242520A1, “MALONITRILE DERIVATIVES” (Hoffmann-La Roche Inc., priority 2020, published 2023).

Molecular target: T1, human cGAS (residues 161-522) (Homo sapiens, UniProt Q8N884)
T1 construct: Recombinantly expressed purified human cGAS (residues 161-522) was used at 25 nM; made in house
Test: cGAS Activity Assay - Malachite Green (coupled enzymatic assay, phosphate detection)
Assay type: biochemical
Conditions: recombinant human cGAS 25 nM, 80 μM ATP, 80 μM GTP, 100 nM ISD, 4 hour at RT
Method: cGAS Activity Assay—Malachite Green
Compounds were tested for cGAS inhibition in a coupled enzymatic assay based on Phosphate detection by Malachite Green. Final assay conditions were 20 mM TRIS pH 7.5 (Applichem), 5 mM MgCl2 (Sigma) and 0.01% BSA (Sigma) supplemented with 80 μM ATP (Sigma), 80 μM GTP (Sigma) and 100 nM Interferon Stimulating DNA (ISD) (Microsynth). Recombinantly expressed purified human cGAS (residues 161-522) was used at 25 nM.
All compounds were prepared as 10 mM stock solutions in DMSO and a 16 pt dilution series in DMSO with a dilution factor of 2.5 was prepared. 1 μL of DMSO dilution series was transferred to 32.3 μL reaction buffer, mixed by pipetting up/down, spun for 1 minute at 3000 rpm and was visually inspected for precipitation. 5 μL of 3-fold enzyme stock solution were transferred to an empty 384-well Black/Clear Flat Bottom Polystyrene NBS (Corning) rows 3-24. Rows 1-2 were filled with assay buffer. Plates were spun 10 seconds at 1000 rpm (164×g). 5 μL of compound intermediate dilution was added and mixed by pipetting up/down to rows 3-24. Rows 1-2 were filled with 3.1% DMSO assay buffer. Plates were spun 10 seconds at 1000 rpm (164×g). 5 μL 3-fold Nucleotide/DNA mix was added to all wells to start the reaction. Plates were spun 10 seconds at 1000 rpm (164×g) and incubated for 4 hour at room temperature (RT) in the dark. 5 μL 4 U/mL PPase (Sigma) were added to all wells. Plates spun 10 seconds at 1000 rpm (164×g). 10 μL BioMol green Solution (Enzo Life Sciences) was added to all wells. Plates spun 10 seconds at 1000 rpm (164×g) and incubated 30 minutes at RT in the dark. Absorbance data was collected 620 nm on an EnVision Multilable Reader (Perkin Elmer) and the following measurement settings were used: excitation filter photometric was 620 nm; excitation from the top; measurement height was 1 mm; number of flashes was 30; number of flashes integrated was 1.
All plates are checked for abnormalities and outliers in the Blank Control (no protein, row 1) and the Neutral Control (no compound, row 2) are excluded using the 3*SD rule. Data was normalized to 0 and 100% by Blank and Neutral Control and each curve was fitted and judged using the 4 parameter logistic equation to determine the IC50 for cGAS inhibition.
Table 2 provides IC50 values (μM ) for cGAS inhibition obtained for particular examples of the present invention as measured by the above-described assay.

T1 sequence (Q8N884 161-522): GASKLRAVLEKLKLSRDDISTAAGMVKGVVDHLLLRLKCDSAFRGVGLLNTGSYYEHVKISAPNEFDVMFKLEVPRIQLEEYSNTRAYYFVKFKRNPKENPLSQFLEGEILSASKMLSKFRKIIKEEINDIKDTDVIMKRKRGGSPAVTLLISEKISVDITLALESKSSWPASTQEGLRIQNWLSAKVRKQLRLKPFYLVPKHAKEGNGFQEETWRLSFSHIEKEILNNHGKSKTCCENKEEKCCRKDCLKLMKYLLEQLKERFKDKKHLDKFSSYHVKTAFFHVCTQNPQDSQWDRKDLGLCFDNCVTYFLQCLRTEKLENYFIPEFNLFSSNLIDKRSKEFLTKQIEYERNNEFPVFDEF

COc1cccc(-c2cc3cc(NC(=O)/C(C#N)=C(\O)c4cnoc4C)ccc3c(=O)[nH]2)c1 [Example 21, (Z)-2-cyano-3-hydroxy-N-(3-(3-methoxyphenyl)-1-oxo-1,2-dihydroisoquinolin-6-yl)-3-(5-methylisoxazol-4-yl)acrylamide] was tested, and the IC50 was 1060 nM.
Molecule COc1ccc(NC(=O)/C(C#N)=C(\O)c2cnoc2C)nn1 [Example 7, (Z)-2-cyano-3-hydroxy-N-(6-methoxypyridazin-3-yl)-3-(5-methylisoxazol-4-yl)prop-2-enamide] has an IC50 of 1020 nM.
In the case of N#C/C(C(=O)Nc1ccc(C(F)(F)F)cc1)=C(/O)c1cnco1 [Example 13, (Z)-2-cyano-3-hydroxy-3-(oxazol-5-yl)-N-(4-(trifluoromethyl)phenyl) acrylamide], the IC50 is reported as 7190 nM.
In the case of Cc1oncc1/C(O)=C(\C#N)C(=O)Nc1ccn(C)c(=O)c1 [Example 5, (Z)-2-cyano-3-hydroxy-3-(5-methylisoxazol-4-yl)-N-(1-methyl-2-oxo-4-pyridyl)prop-2-enamide], the IC50 is reported as 170 nM.
In the case of Cc1oncc1/C(O)=C(\C#N)C(=O)Nc1cccnc1 [Example 2, (Z)-2-cyano-3-hydroxy-3-(5-methylisoxazol-4-yl)-N-(3-pyridyl)prop-2-], the IC50 is reported as 1570 nM.
Molecule Cc1oncc1/C(O)=C(\C#N)C(=O)Nc1cccc2ccccc12 [Example 16, (Z)-2-cyano-3-hydroxy-3-(5-methylisoxazol-4-yl)-N-(naphthalen-1-yl)acrylamide] has an IC50 of 1790 nM.
Cc1oncc1/C(O)=C(\C#N)C(=O)Nc1ccc2c(c1)CCC2=O [Example 3, (Z)-2-cyano-3-hydroxy-3-(5-methylisoxazol-4-yl)-N-(1-oxoindan-5-yl)prop-2-enamide] showed an IC50 of 220 nM.
CCOC(=O)c1c(C)csc1NC(=O)/C(C#N)=C(\O)c1cnoc1C [Example 10, ethyl (Z)-2-(2-cyano-3-hydroxy-3-(5-methylisoxazol-4-yl)acrylamido)-4-methylthiophene-3-carboxylate] gave an IC50 of 820 nM.
In the case of Cc1oncc1/C(O)=C(\C#N)C(=O)Nc1cc[nH]c(=O)c1 [Example 6, (Z)-2-cyano-3-hydroxy-3-(5-methylisoxazol-4-yl)-N-(2-oxo-1H-pyridin-4-yl)prop-2-enamide], the IC50 is reported as 180 nM.
Molecule Cc1nc(NC(=O)/C(C#N)=C(\O)c2cnoc2C)nc2c1CS(=O)(=O)CC2 [Example 24, (Z)-2-cyano-3-hydroxy-N-(4-methyl-6,6-dioxido-7,8-dihydro-5H-thiopyrano[4,3-d]pyrimidin-2-yl)-3-(5-methylisoxazol-4-yl)acrylamide] has an IC50 of 450 nM.
COC(=O)c1sccc1NC(=O)/C(C#N)=C(\O)c1cnoc1C [Example 9, methyl (Z)-3-(2-cyano-3-hydroxy-3-(5-methylisoxazol-4-yl)acrylamido) thiophene-2-carboxylate] showed an IC50 of 1270 nM.
Cc1cccc(C)c1NC(=O)c1ccc(NC(=O)/C(C#N)=C(\O)c2cnoc2C)cn1 [Example 20, (Z)-5-(2-cyano-3-hydroxy-3-(5-methylisoxazol-4-yl)acrylamido)-N-(2,6-dimethylphenyl) picolinamide] showed an IC50 of 500 nM.
COC(=O)c1ccc(NC(=O)/C(C#N)=C(\O)c2conc2C)cc1 [Example 12, methyl (Z)-4-(2-cyano-3-hydroxy-3-(3-methylisoxazol-4-yl)acrylamido) benzoate] showed an IC50 of 1130 nM.
Work on Cc1oncc1/C(O)=C(\C#N)C(=O)Nc1nc2c(c(-c3ccccc3)n1)CCCC2 [Example 22, (Z)-2-cyano-3-hydroxy-3-(5-methylisoxazol-4-yl)-N-(4-phenyl-5,6,7,8-tetrahydroquinazolin-2-yl)acrylamide] yielded an IC50 of 970 nM.
COc1cnc(NC(=O)/C(C#N)=C(\O)c2cnoc2C)cn1 [Example 19, (Z)-2-cyano-3-hydroxy-N-(5-methoxypyrazin-2-yl)-3-(5-methylisoxazol-4-yl)prop-2-enamide] showed an IC50 of 840 nM.
Cc1cnoc1/C(O)=C(\C#N)C(=O)Nc1ccc(C(F)(F)F)cc1 [Example 14, (Z)-2-cyano-3-hydroxy-3-(4-methylisoxazol-5-yl)-N-(4-(trifluoromethyl)phenyl) acrylamide] showed an IC50 of 8480 nM.
In the case of Cc1sncc1/C(O)=C(\C#N)C(=O)Nc1ccc(C(F)(F)F)cc1 [Example 15, (Z)-2-cyano-3-hydroxy-3-(5-methylisothiazol-4-yl)-N-(4-(trifluoromethyl)phenyl) acrylamide], the IC50 is reported as 4760 nM.
Work on Cc1nocc1/C(O)=C(\C#N)C(=O)Nc1ccc(C(F)(F)F)cc1 [Example 11, (Z)-2-cyano-3-hydroxy-3-(3-methylisoxazol-4-yl)-N-(4-(trifluoromethyl)phenyl) acrylamide] yielded an IC50 of 3990 nM.
Cc1oncc1/C(O)=C(\C#N)C(=O)Nc1ccc2ccccc2c1 [Example 17, (Z)-2-cyano-3-hydroxy-3-(5-methylisoxazol-4-yl)-N-(naphthalen-2-yl)acrylamide] showed an IC50 of 1110 nM.
With COc1nc(NC(=O)/C(C#N)=C(\O)c2cnoc2C)nc2c1CCCC2 [Example 23, (Z)-2-cyano-3-hydroxy-N-(4-methoxy-5,6,7,8-tetrahydroquinazolin-2-yl)-3-(5-methylisoxazol-4-yl)acrylamide] the IC50 was 5210 nM.
For COc1ccc(NC(=O)/C(C#N)=C(\O)c2cnoc2C)cn1 [Example 8, (Z)-2-cyano-3-hydroxy-N-(6-methoxy-3-pyridyl)-3-(5-methylisoxazol-4-yl)prop-2-enamide], the IC50 was 1340 nM.
In the case of Cn1nncc1/C(O)=C(\C#N)C(=O)Nc1ccc(C(F)(F)F)cc1 [Example 4, (Z)-2-cyano-3-hydroxy-3-(1-methyl-1H-1,2,3-triazol-5-yl)-N-(4-(trifluoromethyl)phenyl) acrylamide], the IC50 is reported as 6310 nM.
Cc1oncc1/C(O)=C(\C#N)C(=O)Nc1ccncc1 [Example 18, (Z)-2-cyano-3-hydroxy-3-(5-methylisoxazol-4-yl)-N-(4-pyridyl)prop-2-enamide] was tested, and the IC50 was 620 nM.
Work on Cn1cncc1/C(O)=C(\C#N)C(=O)Nc1ccc(C(F)(F)F)cc1 [Example 1, (Z)-2-Cyano-3-hydroxy-3-(1-methyl-1H-imidazol-5-yl)-N-(4-(trifluoromethyl)phenyl)acrylamide] yielded an IC50 of 1850 nM.
